What was measured:
Assay type in all cases: in vivo
[1] = system: wheat (Triticum aestivum L.): TRZAX; test: Test Example 1: pre-emergence herbicidal activity (growth controlling degree); conditions: 20th to 21st day after application
Summary of the method: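 Upland soil pots, seeded; day 1 post-sowing: pre-emergence spray, WP/EC formulation, predetermined a.i. rate, 500 L/ha water. Readout: visual % growth control, days 20–21, 0–100 scale.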

[2] = system: barnyardgrass (Echinochloa oryzicola: ECHOR); test: Test Example 3: water application herbicidal activity, paddy (growth controlling degree); conditions: rate 63 g a.i./ha, water application under submerged condition, paddy pot, barnyardgrass at 0.5 leaf stage; for pest or weed control at 63 g/ha: Echinochloa oryzicola, 336 h
From the text: (§1) Paddy field soil was put into a {fraction (1/1,000,000)} ha pot, and seeds of barnyardgrass (Echinochloa oryzicola: ECHOR) and japanese bulrush (Scirpus juncoides: SCPJO) were sown and slightly covered with soil. Then the pot was left to stand still in a greenhouse in a state where the depth of flooding water was from 0.5 to 1 cm, and one day later, tubers of japanese ribbon wapato (Sagittaria pygmaea: SAGPY) were planted. Thereafter, the depth of flooding water was maintained at a level of from 3 to 4 cm, and when barnyardgrass and japanese bulrush reached a 0.5 leaf stage, an aqueous diluted solution of a wettable powder or emulsifiable concentrate having the compound of the present invention formulated in accordance with a usual formulation method, was uniformly applied under submerged condition by a pipette so that the dose of the active ingredient would be at a predetermined level. On the other hand, paddy filed soil was put into a {fraction (1/1,000,000)} ha pot and puddled and leveled, and the depth of flooding water was from 3 to 4 cm. One day later, rice (Oryza sativa L.: ORYSA) of 2 leaf stage was transplanted in a depth of 3 cm. On the 4th day after the transplantation, the compound of the present invention was applied in the same manner as described above. On the 14th day after the application of the herbicide, the growth of barnyardgrass, japanese burlush and japanese ribbon wapato was visually observed and on the 21st day after the application of the herbicide, the growth of rice was visually observed, and the herbicidal effects were evaluated by growth controlling degrees (%) ranging from 0 (equivalent to the untreated control) to 100 (complete kill), whereby the results shown in Table 13, were obtained. Compound Nos. in Table 13 correspond to Compound Nos. in Table 1 to 7 given hereinbefore.

[3] = system: japanese bulrush (Scirpus juncoides: SCPJO); test: as above; conditions: rate 63 g a.i./ha, water application under submerged condition, paddy pot, japanese bulrush at 0.5 leaf stage; for pest or weed control at 63 g/ha: Schoenoplectiella juncoides, 336 h
From the text: as §1

[4] = system: rice (Oryza sativa L.: ORYSA); test: as above; conditions: rate 63 g a.i./ha, paddy pot, rice of 2 leaf stage transplanted, treated on the 4th day after transplantation; for pest or weed control at 63 g/ha: Oryza sativa, 504 h
From the text: as §1

[5] = system: japanese ribbon wapato (Sagittaria pygmaea: SAGPY); test: as above; conditions: rate 63 g a.i./ha; water application under submerged condition, paddy pot; tubers of japanese ribbon wapato planted
From the text: as §1

[6] = system: wheat (Triticum aestivum L.), TRZAX; test: Test Example 2: post-emergence (foliage treatment) herbicidal activity (growth controlling degree); conditions: 2.8 leaf stage
Summary of the method: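 Herbicidal effect is rated by eye as growth control from 0 (like untreated plants) to 100 (plants killed). Compound, formulated as wettable powder or emulsifiable concentrate, is applied post-emergence to foliage in water at 500 L/ha with 0.1%(v/v) spreader.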

Compound | growth controlling degree, TRZAX ([1]; 250 g a.i./ha) | pest or weed control at 63 g/ha [2] | pest or weed control at 63 g/ha [3] | pest or weed control at 63 g/ha [4] | Water Application Herbicidal Activity SAGPY (growth controlling degree) [5] | growth controlling degree, TRZAX ([1]; 125 g a.i./ha) | growth controlling degree, TRZAX ([6]; 31 g a.i./ha) | Water Application Herbicidal Activity ECHOR (growth controlling degree) [2] | Water Application Herbicidal Activity SCPJO (growth controlling degree) [3] | Water Application Herbicidal Activity ORYSA (growth controlling degree) [4] | growth controlling degree, TRZAX ([6]; 63 g a.i./ha)
Fc1cc(Cl)c2c(c1-c1ncc(C(F)(F)F)cc1Cl)CCCO2 [Compound 7-2, 3-chloro-2-(8-chloro-6-fluoro-3,4-dihydro-2H-1-benzopyran-5-yl)-5-(trifluoromethyl)-pyridine] | 50% | 100% | 98% | 0% | – | – | – | – | – | – | –
CC1CCc2c(c(Cl)cc(F)c2-c2nn(C)c(OC(F)F)c2Cl)O1 (stereo not shown) [Compound 1-39] | – | 100% | 100% | 60% | 100% | – | – | – | – | – | –
CCCCCC1CCc2c(c(Cl)cc(F)c2-c2nn(C)c(OC(F)F)c2Cl)O1 (stereo not shown) [Compound 1-101] | – | – | – | – | 100% | 20% | 30% | 100% | 50% | 35% | –
Cn1nc(-c2c(F)cc(Cl)c3c2CCCO3)c(Cl)c1OC(F)F [Compound 1-33, 4-chloro-3-(8-chloro-6-fluoro-3,4-dihydro-2H-1-benzopyran-5-yl)-5-(difluoromethoxy)-1-methyl-1H-pyrazole] | – | 100% | 100% | 80% | 100% | 70% | – | – | – | – | 98%
Cn1nc(-c2c(F)cc(Cl)c3c2CCC(c2ccccc2)O3)c(Cl)c1OC(F)F (stereo not shown) [Compound 1-42] | 0% | 100% | 98% | 35% | 100% | – | – | – | – | – | –
CC1CCc2c(c(Cl)cc(F)c2-c2nn(C)c(C(F)(F)F)c2Cl)O1 (stereo not shown) [Compound 1-8] | – | 60% | 60% | 10% | 40% | – | – | – | – | – | –
Fc1cc(Cl)c2c(c1-c1nn3c(c1Cl)CCCC3)CCCO2 [Compound 1-79, 3-chloro-2-(8-chloro-6-fluoro-3,4-dihydro-2H-1-benzopyran-5-yl)-4,5,6,7-tetrahydro-pyrazolo[1,5-a]pyridine] | 10% | 100% | 100% | 40% | 100% | – | – | – | – | – | –
Cn1nc(-c2c(F)cc(Cl)c3c2CCCO3)c(Cl)c1C(F)(F)F [Compound 1-2, 4-chloro-3-(8-chloro-6-fluoro-3,4-dihydro-2H-1-benzopyran-5-yl)-1-methyl-5-(trifluoromethyl)-1H-pyrazole] | – | 40% | 30% | 20% | 0% | – | – | – | – | – | 30%
CC1CCc2c(c(Cl)cc(F)c2-c2nn3c(c2Cl)CCCC3)O1 (stereo not shown) [Compound 1-85] | – | – | – | – | 100% | – | – | 100% | 98% | 10% | –

Source: US20040157738A1, “Novel oxygen containing fused cyclic derivatives and herbicidal, desiccant and defoliate compositions containing them” (ISHIHARA SANGYO KAISHA, LTD., priority 2003, published 2004)
